Article PMC9030254, “Target Hopping from Protein Kinases to PXR: Identification of Small-Molecule Protein Kinase Inhibitors as Selective Modulators of Pregnane X Receptor from TüKIC Library” (Cells, 2022)

Legend:
Assay in all cases: PXR target gene mRNA expression in differentiated HepaRG cells (RT-qPCR)
Format in all cases: cell-based
ABCB1 = settings: 48 h
Experimental: (§1) HepaRG cells (Biopredic, Rennes, France) were cultivated in phenol red-free William’s E medium, supplemented with 10% FBS, 2 mM glutamine, 100 U/mL penicillin, 100 µg/mL streptomycin, 5 µg/mL insulin, and 50 µM hydrocortisone. For gene expression analyses, 1.0 × 10^5 cells were seeded per well of a 12-well plate. After reaching confluence, growth medium was supplemented with 2% DMSO, and cells were further cultivated for 2 weeks for differentiation into hepatocytes, as described previously. Afterward, cells were adapted to induction medium (growth medium with FBS reduced to 2% and 0.2% DMSO) for 48 h. Then chemical treatment was started for another 48 h, with daily medium change.
(§2) Total RNA was prepared from LS174T and HepaRG cells using the NucleoSpin RNA kit (Macherey-Nagel, Düren, Germany). RNA integrity was analyzed by formaldehyde-agarose gel electrophoresis. First strand cDNA was synthesized as described earlier. Relative quantification analyses were conducted with TaqMan RT-PCR utilizing the BioMark HD system and FLEX Six Gene Expression Integrated Fluidic Circuits (Fluidigm, South San Francisco, CA, USA) as described previously. TaqMan gene expression assays were either the commercially available predesigned assays Hs00184500_m1 (ABCB1) and Hs00604506_m1 (CYP3A4) (Thermo Fischer Scientific) or have been described previously: CYP2B6 [31] and 18S rRNA [39]. Data were analyzed as described previously. Gene expression levels were normalized to respective 18S rRNA levels.
(§3) Figure 7 Effects of novel PXR ligands on endogenous PXR target gene expression. […] (B) HepaRG cells were treated with 0.2% DMSO, 10 µM RIF, or 10 µM compound 100 or cotreated with 10 µM RIF and compound 100 for 48 h. mRNA expression was measured as described above.

CYP2B6 = settings: 10 µM, 48 h
Experimental: as §1, §2, §3

CYP3A4 = settings: 10 µM, 48 h
Experimental: as §1, §2, §3

O=C(Cc1ccccc1)Nc1ccc(F)c(Nc2ccc3c(c2)CCCCC3=O)c1 [Compound 100]
effect on rifampicin-induced expression of ABCB1 (ABCB1; 10 µM compound + 10 µM rifampicin): only minor inhibitory effects
expression of ABCB1 mRNA (ABCB1; 10 µM): induced the expression of ABCB1, CYP2B6, and CYP3A4
expression of CYP2B6 mRNA (CYP2B6): induced the expression of ABCB1, CYP2B6, and CYP3A4
expression of CYP3A4 mRNA (CYP3A4): induced the expression of ABCB1, CYP2B6, and CYP3A4
